Reference: ChEMBL document CHEMBL5729210, “Benzodiazepine derivatives as RSV inhibitors” (2022)

Test: RSV-A Assay: The description is Japanese.

SMILES	EC50
N#Cc1cc(-c2nnc(NC3N=C(c4ccccc4)c4ccccc4NC3=O)o2)ccc1F (stereo not drawn)	in the range around 0.6 µM
CS(=O)(=O)c1ccc(-c2nnc(NC3N=C(c4ccccc4)c4ccccc4NC3=O)o2)cc1 (stereo not drawn)	> 0.8 µM
O=C1Nc2ccccc2C(c2ccccc2)=NC1Nc1nnc(-c2cccc(F)c2)o1 (stereo not drawn)	> 0.8 µM
O=C1Nc2ccccc2C(c2ccccc2)=N[C@@H]1Nc1nnc(-c2ccco2)o1	in the range around 0.6 µM
O=C1Nc2ccccc2C(c2ccccc2)=NC1Nc1nnc(Cc2ccccc2)o1 (stereo not drawn)	> 0.8 µM
O=C1Nc2ccccc2C(c2ccccc2)=NC1Nc1nnc(-c2ccccc2F)o1 (stereo not drawn)	> 0.8 µM
O=C1Nc2ccccc2C(c2ccccc2)=NC1Nc1nnc(-c2cccc3ccccc23)o1 (stereo not drawn)	> 0.8 µM
Cc1ccc(-c2nnc(NC3N=C(c4ccccc4)c4ccccc4NC3=O)o2)s1 (stereo not drawn)	> 0.8 µM
COc1cccc(-c2nnc(NC3N=C(c4ccccc4)c4ccccc4NC3=O)o2)c1 (stereo not drawn)	> 0.8 µM
O=C1Nc2ccccc2C(c2ccccc2)=N[C@H]1Nc1nnc(-c2ccc(F)cc2)o1	> 0.8 µM
N#Cc1ccc(-c2nnc(NC3N=C(c4ccccc4)c4ccccc4NC3=O)o2)nc1 (stereo not drawn)	in the range around 0.6 µM
Cc1nnc(NC2N=C(c3ccccc3)c3ccccc3NC2=O)o1 (stereo not drawn)	> 0.8 µM
Cc1cccc(-c2nnc(NC3N=C(c4ccccc4)c4ccccc4NC3=O)o2)n1 (stereo not drawn)	> 0.8 µM
O=C1Nc2ccccc2C(c2ccccc2)=NC1Nc1nnc(-c2ccccc2)o1 (stereo not drawn)	> 0.8 µM
O=C1Nc2ccccc2C(c2ccccc2)=NC1Nc1nnc(-c2ccc3ccccc3c2)o1 (stereo not drawn)	in the range around 0.6 µM
COc1cc(-c2nnc(NC3N=C(c4ccccc4)c4ccccc4NC3=O)o2)ccc1F (stereo not drawn)	< 0.4 µM
O=C1Nc2ccccc2C(c2ccccc2)=NC1Nc1nnc(-c2ccc(Cl)cc2)o1 (stereo not drawn)	< 0.4 µM
O=C1Nc2ccccc2C(c2ccccc2)=NC1Nc1nnc(-c2ccc(Cl)o2)o1 (stereo not drawn)	> 0.8 µM
O=C1Nc2ccccc2C(c2ccccc2)=NC1Nc1nnc(-c2cccc(C(F)(F)F)c2)o1 (stereo not drawn)	> 0.8 µM

SMILES	EC50
N#Cc1cccc(-c2nnc(NC3N=C(c4ccccc4)c4ccccc4NC3=O)o2)c1 (stereo not drawn)	> 0.8 µM
NS(=O)(=O)c1ccc(-c2nnc(NC3N=C(c4ccccc4)c4ccccc4NC3=O)o2)cc1 (stereo not drawn)	in the range around 0.6 µM
O=C1Nc2ccccc2C(c2ccccc2)=NC1Nc1nnc(-c2ccc(F)cn2)o1 (stereo not drawn)	> 0.8 µM
O=C1Nc2ccccc2C(c2ccccc2)=N[C@@H]1Nc1nnc(-c2ccc(F)cc2)o1	in the range around 0.6 µM
O=C1Nc2ccccc2C(c2ccccc2)=NC1Nc1nnc(-c2cccnc2)o1 (stereo not drawn)	> 0.8 µM
Cc1cc(-c2nnc(NC3N=C(c4ccccc4)c4ccccc4NC3=O)o2)ccc1C#N (stereo not drawn)	in the range around 0.6 µM
O=C1Nc2ccccc2C(c2ccccc2)=NC1Nc1nnc(-c2ccc(C(F)(F)F)cn2)o1 (stereo not drawn)	> 0.8 µM
COc1ccccc1-c1nnc(NC2N=C(c3ccccc3)c3ccccc3NC2=O)o1 (stereo not drawn)	> 0.8 µM
O=C1Nc2ccccc2C(c2ccccc2)=NC1Nc1nnc(C2CCOCC2)o1 (stereo not drawn)	> 0.8 µM
O=C1Nc2ccccc2C(c2ccccc2)=NC1Nc1nnc(-c2ccccn2)o1 (stereo not drawn)	in the range around 0.6 µM
N#Cc1ccc(-c2nnc(NC3N=C(c4ccccc4)c4ccccc4NC3=O)o2)cc1 (stereo not drawn)	in the range around 0.6 µM
N#Cc1ccc(-c2nnc(NC3N=C(c4ccccc4)c4ccccc4NC3=O)o2)cc1F (stereo not drawn)	> 0.8 µM
O=C1Nc2ccccc2C(c2ccccc2)=N[C@H]1Nc1nnc(-c2ccco2)o1	> 0.8 µM
O=C1Nc2ccccc2C(c2ccccc2)=NC1Nc1nnc(-c2ccc(OC(F)(F)F)cc2)o1 (stereo not drawn)	> 0.8 µM
COc1ccc(-c2nnc(NC3N=C(c4ccccc4)c4ccccc4NC3=O)o2)cc1 (stereo not drawn)	> 0.8 µM
O=C1Nc2ccccc2C(c2ccccc2)=NC1Nc1nnc(-c2ccc(C(F)(F)F)cc2)o1 (stereo not drawn)	> 0.8 µM
CC(C)Oc1cccc(-c2nnc(NC3N=C(c4ccccc4)c4ccccc4NC3=O)o2)c1 (stereo not drawn)	in the range around 0.6 µM
O=C1Nc2ccccc2C(c2ccccc2)=NC1Nc1nnc(-c2ccc(-n3cccn3)cc2)o1 (stereo not drawn)	in the range around 0.6 µM
O=C1Nc2ccccc2C(c2ccccc2)=NC1Nc1nnc(C2CC2)o1 (stereo not drawn)	> 0.8 µM
